The results in this text go back to PMC3145798, “The Extracytoplasmic Domain of the Mycobacterium tuberculosis Ser/Thr Kinase PknB Binds Specific Muropeptides and Is Required for PknB Localization” (PLoS Pathogens, 2011).

The target in experiment [1] is T1, extracytoplasmic domain of M. tuberculosis PknB (ED-PknB, PASTA domains) (Mycobacterium tuberculosis, UniProt P9WI81).
T1 construct: GST (N, cleaved yes); made in house; host or cells: Escherichia coli BL21 (DE3)
T1 sequence (P9WI81 354-626): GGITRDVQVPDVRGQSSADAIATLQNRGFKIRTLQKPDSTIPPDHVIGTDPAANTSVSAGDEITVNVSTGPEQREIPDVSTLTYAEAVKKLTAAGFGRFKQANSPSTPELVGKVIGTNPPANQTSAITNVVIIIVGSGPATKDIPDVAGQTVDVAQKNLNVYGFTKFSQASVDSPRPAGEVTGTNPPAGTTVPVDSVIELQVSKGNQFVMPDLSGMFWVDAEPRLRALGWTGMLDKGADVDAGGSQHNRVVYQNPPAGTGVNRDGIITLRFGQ
The experiment in a line: Surface plasmon resonance (Biacore) binding of synthetic muropeptides to immobilized ED-PknB. More on the design: ka1: unit not given here. The settings on record: for Kd / ka1 / ka2 / kd1 / kd2: two-state binding model; for ka1 / ka2 / kd1 / kd2: 25°C; for decrease in binding compared to compound 6a: ratio of affinities relative to 6a. Background: Surface plasmon resonance follows binding to a sensor surface in real time, without labels.

Experiment [2] relates to dormant M. tuberculosis H37Rv cells. The experiment in a line: Dormancy and resuscitation assay (most probable number). The following applies: for Fold increase in viable cell number relative to cultures grown in Sauton's medium without additive: muropeptide at 10 times the KD of 6c, spent medium 50%, MPN after 2 months at 37°C; for increase in viability relative to cells in fresh medium alone: two independent experiments (6 or 9 months hypoxic), experiment not assigned, most probable number analysis. It is filed as cell-based, Mycobacterium tuberculosis H37Rv.

The mark [3] stands for this setting: SPR Biacore T100, ED-PknB on CM-5 chip (5,000 RU), HBS-EP pH 7.4, 25°C, Table 1 and text.
Where [4] appears, read: Table S1, SPR, ED-PknB on CM-5 chip (5,000 RU).
[5] abbreviates: Experiment 1: 6 month old dormant culture.
Setting [6] is: Experiment 2: 9 month old dormant culture.

“Also recorded” adds a separate entry of the source. *1 amine or outer side, *2 acyl side, *3 side chain or, on linkers, in order; H or OH if unused. Where a SMILES comes first, the peptide text is derived from it. [ ]: non-standard residue; d: D form. Mur = C[C@@H](O[C@H]1[C@H](O)[C@@H](CO)OC(O)[C@@H]1N[*:1])C(=O)[*:2]; d(isoGln) = NC(=O)[C@@H](CCC(=O)[*:2])N[*:1]

With `CC(=O)N[C@H]1C(O)O[C@H](CO)[C@@H](O)[C@@H]1O[C@H](C)C(=O)N[C@@H](C)C(=O)N[C@H](CCC(=O)N[C@@H](CCCC(N)C(N)=O)C(=O)N[C@H](C)C(N)=O)C(=O)O` (some centres unmarked) [MTrP-DAP (acid/amide) 6b], in experiment [1] (SPR), the “binding to ED-PknB in words” value is recorded as “did not show measurable binding”. In addition, the dissociation constant Kd in experiment [1] (setting [3]) and in experiment [1] (setting [4]) was above 100 µM throughout.

Take `C[C@H](N)C(=O)N[C@H](CCC(=O)N[C@@H](CCCCN)C(=O)N[C@H](C)C(=O)N[C@H](C)C(N)=O)C(N)=O` [Peptide 4 (amide)] (H-A[d(isoGln)]K[dA][dA]-NH2; N-terminus assumed): the “binding to ED-PknB in words” value in experiment [1] (SPR) is reported as “Neither compound showed significant interaction”.

The compound `CC(=O)N[C@H]1C(O)O[C@H](CO)[C@@H](O)[C@@H]1O[C@H](C)C(=O)N[C@@H](C)C(=O)N[C@H](CCC(=O)N[C@@H](CCC[C@@H](N)C(N)=O)C(=O)N[C@H](C)C(N)=O)C(N)=O` (some centres unmarked) [MTrP-DAP (amide/amide) 6c] returned a Kd in experiment [1] (setting [4]) of 14.9 µM. Besides, in experiment [1] (Table S1, SPR), the ka1 amounted to 342.8, the ka2 was 41.5 10^-3 s^-1, the kd1 is 57.8 10^-3 s^-1 and the kd2 is on record as 4.02 10^-3 s^-1. For the same compound, in experiment [2] (setting [5]), the “Fold increase in viable cell number relative to cultures grown in Sauton's medium without additive” value is 9 fold. The “Fold increase in viable cell number relative to cultures grown in Sauton's medium without additive” value in experiment [2] (setting [6]) is 3 fold. In addition, the “increase in viability relative to cells in fresh medium alone” value in experiment [2] was “three; also recorded: nine-fold”.

Take `CC(=O)N[C@H]1C(O)O[C@H](CO)[C@@H](O)[C@@H]1O[C@H](C)C(=O)N[C@@H](C)C(=O)N[C@H](CCC(=O)N[C@@H](CCCCN)C(=O)N[C@H](C)C(=O)N[C@H](C)C(N)=O)C(N)=O` (stereo partly drawn) [MPP-Lys (D-Ala) 3a] (Ac-[Mur]A[d(isoGln)]K[dA][dA]-NH2): the Kd in experiment [1] (setting [3]) and in experiment [1] (setting [4]) was above 500 µM throughout.

Take `CC(=O)N[C@H]1C(O)O[C@H](CO)[C@@H](O)[C@@H]1O[C@H](C)C(=O)N[C@@H](C)C(=O)N[C@H](CCC(=O)N[C@@H](CCC[C@@H](N)C(=O)O)C(=O)N[C@H](C)C(N)=O)C(N)=O` (some centres unmarked) [MTrP-DAP (amide/acid) 6a]: in experiment [1] (SPR), the “binding to ED-PknB in words” value is “exhibited the highest affinity”. In experiment [1] (Table S1, SPR), the ka1 is given as 3451, the ka2 was 1.83 10^-3 s^-1, the kd1 is on record as 100.7 10^-3 s^-1 and the kd2 is 1.4 10^-3 s^-1.

In the case of `CC(=O)N[C@H](CCC[C@H](NC(=O)CC[C@@H](NC(=O)[C@H](C)NC(=O)[C@@H](C)O[C@H]1[C@H](O)[C@@H](CO)OC(O)[C@@H]1NC(C)=O)C(N)=O)C(=O)N[C@H](C)C(N)=O)C(=O)O` (some centres unmarked) [MTrP-DAP(amide/acid)NHAc 6e], the “decrease in binding compared to compound 6a” value (“decrease in binding” for short) in experiment [1] (SPR) is listed as “six-fold”. Also, in experiment [1] (Table S1, SPR), the ka1 is 354.2, the ka2 is given as 6.6 10^-3 s^-1, the kd1 is 106 10^-3 s^-1 and the kd2 was 2.2 10^-3 s^-1.

On to `CC(=O)N[C@H]1C(O)O[C@H](CO)[C@@H](O)[C@@H]1O[C@H](C)C(=O)N[C@@H](C)C(=O)N[C@H](CCC(=O)N[C@@H](CCC[C@@H](N)C(=O)O)C(=O)N[C@H](C)C(N)=O)C(=O)O` (some centres unmarked) [MTrP-DAP (acid/acid) 6d], for which, in experiment [1] (SPR), the “decrease in binding” value is recorded as “four-fold”. Also, in experiment [1] (Table S1, SPR), the ka1 was 1931, the ka2 is reported as 2.0 10^-3 s^-1, the kd1 was 168.7 10^-3 s^-1 and the kd2 is 3.2 10^-3 s^-1.

As to `CC(=O)N[C@@H](C)C(=O)N[C@H](CCC(=O)N[C@@H](CCCC(N)C(=O)O)C(=O)N[C@H](C)C(=O)N[C@H](C)C(N)=O)C(N)=O` (some centres unmarked) [Peptide 8 (amide/amide)], the “binding to ED-PknB in words” value in experiment [1] (SPR) was “Neither compound showed significant interaction”. The Kd in experiment [1] (setting [3]) and in experiment [1] (setting [4]) was above 500 µM throughout.

As for `CC(=O)N[C@H]1C(O)O[C@H](CO)[C@@H](O)[C@@H]1O[C@H](C)C(=O)N[C@@H](C)C(=O)N[C@H](CCC(=O)N[C@@H](CCC[C@@H](N)C(=O)O)C(N)=O)C(N)=O` (some centres unmarked) [MTP-DAP (amide/acid) 5], in experiment [1] (Table S1, SPR), the ka1 amounted to 5577, the ka2 is 1.64 10^-3 s^-1, the kd1 is 172.9 10^-3 s^-1 and the kd2 is listed as 3.86 10^-3 s^-1.

For the compound `CC(=O)N[C@H]1C(O)O[C@H](CO)[C@@H](O)[C@@H]1O[C@H](C)C(=O)N[C@@H](C)C(=O)N[C@H](CCC(=O)N[C@@H](CCCCN)C(=O)N[C@H](C)C(=O)NCC(N)=O)C(N)=O` (some centres unmarked) [MPP-Lys (Gly) 3b] (Ac-[Mur]A[d(isoGln)]K[dA]G-NH2), the Kd in experiment [1] (setting [3]) and in experiment [1] (setting [4]) was above 500 µM each time. The “Fold increase in viable cell number relative to cultures grown in Sauton's medium without additive” value is reported as 0.9 fold in experiment [2] (setting [5]) and 1 fold in experiment [2] (setting [6]). In experiment [2], the “increase in viability relative to cells in fresh medium alone” value is “No increase in viability”.

As to `CC(=O)NCCCC[C@H](NC(=O)CC[C@@H](NC(=O)[C@H](C)NC(=O)[C@@H](C)O[C@H]1[C@H](O)[C@@H](CO)OC(O)[C@@H]1NC(C)=O)C(N)=O)C(=O)N[C@H](C)C(N)=O` (some centres unmarked) [MTrP-Lys (amide) NHAc 2b], the Kd in experiment [1] (setting [3]) and in experiment [1] (setting [4]) was above 500 µM throughout.

On to `CC(=O)N[C@H]1C(O)O[C@H](CO)[C@@H](O)[C@@H]1O[C@H](C)C(=O)N[C@@H](C)C(=O)N[C@H](CCC(=O)N[C@@H](CCC[C@@H](N)C(=O)O)C(=O)N[C@H](C)C(=O)N[C@H](C)C(N)=O)C(N)=O` (some centres unmarked) [MPP-DAP (amide/acid) 7], for which, in experiment [1] (SPR), the “decrease in binding” value is reported as “about two-fold”. In experiment [1] (Table S1, SPR), the ka1 came to 4316, the ka2 is reported as 1.4 10^-3 s^-1, the kd1 is 161.5 10^-3 s^-1 and the kd2 is 2.8 10^-3 s^-1.

For `CC(=O)N[C@H]1C(O)O[C@H](CO)[C@@H](O)[C@@H]1O[C@H](C)C(=O)N[C@@H](C)C(=O)N[C@H](CCC(=O)N[C@@H](CCCCN)C(N)=O)C(N)=O` (some centres unmarked) [MTP-Lys (amide) 1], the Kd in experiment [1] (setting [3]) and in experiment [1] (setting [4]) was above 500 µM throughout.

A word on the Kd: it is the free concentration of one partner at which half of the binding sites on the other are occupied at equilibrium, for simple one-to-one binding.
